Measured values taken from patent US8802597B2, “Herbicidal pyrimidines” (E I du Pont de Nemours and Company, priority 2003, dated 2014).
Where two headings read alike, the source gives them in different places.

How the values were obtained:
Type in all cases: in vivo
[1] = test system: cocklebur (Xanthium strumarium); test: Test B pre/postemergence; details: Xanthium strumarium; for pest or weed control at 125 g/ha: 125 g ai/ha; for pest or weed control at 500 g/ha: 500 g ai/ha
Summary of the method: (§1)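 Greenhouse whole-plant test; surfactant-containing non-phytotoxic solvent formulation; pre- and postemergence applications made simultaneously; post plants 2–18 cm, 1- to 4-leaf; visual scoring at 13–15 days on 0–100 scale relative to controls.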

[2] = test system: Surinam grass (Brachiaria decumbens); test: Test B pre/postemergence; details: Urochloa decumbens; for pest or weed control at 125 g/ha: 125 g ai/ha; for pest or weed control at 500 g/ha: 500 g ai/ha
Summary of the method: as §1

[3] = test system: giant foxtail (Setaria faberii); test: Test B pre/postemergence; details: Setaria faberi; for pest or weed control at 125 g/ha: 125 g ai/ha; for pest or weed control at 500 g/ha: 500 g ai/ha
Summary of the method: as §1

[4] = test system: barnyardgrass (Echinochloa crus-galli); test: Test B pre/postemergence; details: Echinochloa crus-galli; for pest or weed control at 125 g/ha: 125 g ai/ha; for pest or weed control at 500 g/ha: 500 g ai/ha
Summary of the method: as §1

[5] = test system: crabgrass (Digitaria sanguinalis); test: Test B pre/postemergence; details: Digitaria sanguinalis; for pest or weed control at 125 g/ha: 125 g ai/ha; for pest or weed control at 500 g/ha: 500 g ai/ha
Summary of the method: as §1

[6] = test system: wheat (Triticum aestivum); test: Test B pre/postemergence; details: Triticum aestivum; for plant injury at 125 g/ha: 125 g ai/ha; for plant injury at 500 g/ha: 500 g ai/ha
Summary of the method: as §1

[7] = test system: velvetleaf (Abutilon theophrasti); test: Test B pre/postemergence; details: Abutilon theophrasti; for pest or weed control at 125 g/ha: 125 g ai/ha; for pest or weed control at 500 g/ha: 500 g ai/ha
Summary of the method: as §1

[8] = test system: pigweed (Amaranthus retroflexus); test: Test B pre/postemergence; details: Amaranthus retroflexus; for pest or weed control at 125 g/ha: 125 g ai/ha; for pest or weed control at 500 g/ha: 500 g ai/ha
Summary of the method: as §1

[9] = test system: lambsquarters (Chenopodium album); test: Test B pre/postemergence; details: Chenopodium album; for pest or weed control at 125 g/ha: 125 g ai/ha; for pest or weed control at 500 g/ha: 500 g ai/ha
Summary of the method: as §1

[10] = test system: corn (Zea mays); test: Test B pre/postemergence; details: Zea mays
Summary of the method: as §1

[11] = test system: morningglory (Ipomoea coccinea); test: Test B pre/postemergence; details: Ipomoea; for pest or weed control at 125 g/ha: 125 g ai/ha; for pest or weed control at 500 g/ha: 500 g ai/ha
Summary of the method: as §1

[12] = test system: wild oat (Avena fatua); test: Test B postemergence; details: Avena fatua, post-emergence
Summary of the method: as §1

[13] = test system: blackgrass (Alopecurus myosuroides); test: Test B postemergence; details: Alopecurus myosuroides, post-emergence
Summary of the method: as §1

[14] = test system: umbrella sedge (Cyperus difformis); test: Test B flooded paddy test; details: Cyperus difformis, Flood, 1000 g ai/ha; scale 0 to 100; read-out: Plant response rating, Sedge, Umbrella
Summary of the method: (§2)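 Visual injury scoring (0 = no effect, 100 = complete control) versus controls made 13 to 15 days after treatment in the greenhouse. Test species were grown in flooded paddy to the 2-leaf stage: rice, barnyardgrass, umbrella sedge, duck salad.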

[15] = test system: barnyardgrass (Echinochloa crus-galli); test: Test B flooded paddy test; details: Echinochloa crus-galli, Flood, 1000 g ai/ha; scale 0 (no effect) to 100 (complete control); read-out: Plant response rating, Barnyardgrass
Summary of the method: as §2

[16] = test system: duck salad (Heteranthera limosa); test: Test B flooded paddy test; details: Heteranthera limosa, Flood, 1000 g ai/ha; scale 0 to 100; read-out: Plant response rating, Ducksalad
Summary of the method: as §2

[17] = test system: rice (Oryza sativa); test: Test B flooded paddy test; details: Oryza sativa, Flood, 1000 g ai/ha; scale 0 to 100; read-out: Plant response rating, Rice
Summary of the method: as §2

Nc1nc(C2CC2)nc(C=O)c1Br [Compound 26]
100%: pest or weed control at 500 g/ha ([7]; pre-emergence, Preemergence, scale 0 to 100 (0 no effect, 100 complete control), read-out: Velvetleaf plant response rating) | pest or weed control at 500 g/ha ([8]; pre-emergence, Preemergence, scale 0 to 100 (0 no effect, 100 complete control), read-out: Pigweed plant response rating) | pest or weed control at 125 g/ha ([9]; pre-emergence, Preemergence, scale 0 to 100 (0 no effect, 100 complete control), read-out: Plant response rating, Lambsquarters) | pest or weed control at 500 g/ha ([9]; pre-emergence, Preemergence, scale 0 to 100 (0 no effect, 100 complete control), read-out: Lambsquarters plant response rating) | pest or weed control at 500 g/ha ([11]; pre-emergence, Preemergence, scale 0 to 100 (0 no effect, 100 complete control), read-out: Morningglory plant response rating)
30%: pest or weed control at 125 g/ha ([2]; post-emergence, Postemergence, scale 0 to 100 (0 no effect, 100 complete control), read-out: Surinam Grass plant response rating) | pest or weed control at 125 g/ha ([3]; post-emergence, Postemergence, scale 0 to 100 (0 no effect, 100 complete control), read-out: Foxtail, Giant plant response rating) | pest or weed control at 125 g/ha ([5]; pre-emergence, Preemergence, scale 0 to 100 (0 no effect, 100 complete control), read-out: Plant response rating, Crabgrass) | plant injury at 125 g/ha ([6]; post-emergence, Postemergence, scale 0 to 100 (0 no effect, 100 complete control), read-out: Wheat plant response rating) | plant injury at 500 g/ha ([6]; post-emergence, Postemergence, scale 0 to 100, read-out: Plant response rating, Wheat) | plant injury at 125 g/ha ([6]; pre-emergence, Preemergence, scale 0 to 100 (0 no effect, 100 complete control), read-out: Plant response rating, Wheat) | Corn plant response rating (crop injury, 0 = no effect, 100 = complete kill) at 125 g/ha ([10]; pre-emergence, Preemergence, 125 g ai/ha, scale 0 to 100 (0 no effect, 100 complete control)) | pest or weed control at 125 g/ha ([12]; 125 g ai/ha, scale 0 to 100 (0 no effect, 100 complete control), read-out: Oat, Wild plant response rating)
70%: pest or weed control at 500 g/ha ([5]; post-emergence, Postemergence, scale 0 to 100, read-out: Plant response rating, Crabgrass) | pest or weed control at 500 g/ha ([7]; post-emergence, Postemergence, scale 0 to 100, read-out: Plant response rating, Velvetleaf) | pest or weed control at 125 g/ha ([8]; post-emergence, Postemergence, scale 0 to 100 (0 no effect, 100 complete control), read-out: Pigweed plant response rating) | pest or weed control at 125 g/ha ([9]; post-emergence, Postemergence, scale 0 to 100 (0 no effect, 100 complete control), read-out: Lambsquarters plant response rating) | pest or weed control at 125 g/ha ([11]; post-emergence, Postemergence, scale 0 to 100 (0 no effect, 100 complete control), read-out: Morningglory plant response rating) | pest or weed control at 500 g/ha ([13]; 500 g ai/ha, scale 0 to 100, read-out: Plant response rating, Blackgrass) | plant injury at 1000 g/ha [17]
90%: pest or weed control at 500 g/ha ([1]; post-emergence, Postemergence, scale 0 to 100, read-out: Plant response rating, Cocklebur) | pest or weed control at 500 g/ha ([1]; pre-emergence, Preemergence, scale 0 to 100 (0 no effect, 100 complete control), read-out: Cocklebur plant response rating) | pest or weed control at 500 g/ha ([4]; pre-emergence, Preemergence, scale 0 to 100 (0 no effect, 100 complete control), read-out: Barnyardgrass plant response rating) | pest or weed control at 500 g/ha ([5]; pre-emergence, Preemergence, scale 0 to 100 (0 no effect, 100 complete control), read-out: Crabgrass plant response rating) | pest or weed control at 125 g/ha ([7]; pre-emergence, Preemergence, scale 0 to 100 (0 no effect, 100 complete control), read-out: Plant response rating, Velvetleaf) | pest or weed control at 125 g/ha ([8]; pre-emergence, Preemergence, scale 0 to 100 (0 no effect, 100 complete control), read-out: Plant response rating, Pigweed) | pest or weed control at 125 g/ha ([11]; pre-emergence, Preemergence, scale 0 to 100 (0 no effect, 100 complete control), read-out: Plant response rating, Morningglory) | pest or weed control at 1000 g/ha [16]
60%: pest or weed control at 500 g/ha ([2]; post-emergence, Postemergence, scale 0 to 100, read-out: Plant response rating, Surinam Grass) | pest or weed control at 500 g/ha ([4]; post-emergence, Postemergence, scale 0 to 100, read-out: Plant response rating, Barnyardgrass) | plant injury at 500 g/ha ([6]; pre-emergence, Preemergence, scale 0 to 100 (0 no effect, 100 complete control), read-out: Wheat plant response rating) | pest or weed control at 1000 g/ha [15]
20%: pest or weed control at 125 g/ha ([4]; post-emergence, Postemergence, scale 0 to 100 (0 no effect, 100 complete control), read-out: Barnyardgrass plant response rating) | Corn plant response rating (crop injury, 0 = no effect, 100 = complete kill) at 500 g/ha ([10]; post-emergence, Postemergence, 500 g ai/ha, scale 0 to 100)
0%: plant injury at 125 g/ha ([10]; post-emergence, Postemergence, 125 g ai/ha, scale 0 to 100 (0 no effect, 100 complete control), read-out: Corn plant response rating)
50%: pest or weed control at 125 g/ha ([4]; pre-emergence, Preemergence, scale 0 to 100 (0 no effect, 100 complete control), read-out: Plant response rating, Barnyardgrass)
80%: pest or weed control at 125 g/ha ([1]; post-emergence, Postemergence, scale 0 to 100 (0 no effect, 100 complete control), read-out: Cocklebur plant response rating) | pest or weed control at 125 g/ha ([1]; pre-emergence, Preemergence, scale 0 to 100 (0 no effect, 100 complete control), read-out: Plant response rating, Cocklebur) | pest or weed control at 500 g/ha ([2]; pre-emergence, Preemergence, scale 0 to 100 (0 no effect, 100 complete control), read-out: Surinam Grass plant response rating) | pest or weed control at 500 g/ha ([3]; pre-emergence, Preemergence, scale 0 to 100 (0 no effect, 100 complete control), read-out: Foxtail, Giant plant response rating) | pest or weed control at 500 g/ha ([8]; post-emergence, Postemergence, scale 0 to 100, read-out: Plant response rating, Pigweed) | pest or weed control at 500 g/ha ([9]; post-emergence, Postemergence, scale 0 to 100, read-out: Plant response rating, Lambsquarters) | plant injury at 500 g/ha ([10]; pre-emergence, Preemergence, 500 g ai/ha, scale 0 to 100 (0 no effect, 100 complete control), read-out: Corn plant response rating) | pest or weed control at 500 g/ha ([11]; post-emergence, Postemergence, scale 0 to 100, read-out: Plant response rating, Morningglory) | pest or weed control at 1000 g/ha [14]
40%: pest or weed control at 500 g/ha ([3]; post-emergence, Postemergence, scale 0 to 100, read-out: Plant response rating, Foxtail, Giant) | pest or weed control at 125 g/ha ([5]; post-emergence, Postemergence, scale 0 to 100 (0 no effect, 100 complete control), read-out: Crabgrass plant response rating) | pest or weed control at 125 g/ha ([7]; post-emergence, Postemergence, scale 0 to 100 (0 no effect, 100 complete control), read-out: Velvetleaf plant response rating) | pest or weed control at 500 g/ha ([12]; 500 g ai/ha, scale 0 to 100, read-out: Plant response rating, Oat, Wild) | pest or weed control at 125 g/ha ([13]; 125 g ai/ha, scale 0 to 100 (0 no effect, 100 complete control), read-out: Blackgrass plant response rating)
10%: pest or weed control at 125 g/ha ([2]; pre-emergence, Preemergence, scale 0 to 100 (0 no effect, 100 complete control), read-out: Plant response rating, Surinam Grass) | pest or weed control at 125 g/ha ([3]; pre-emergence, Preemergence, scale 0 to 100 (0 no effect, 100 complete control), read-out: Plant response rating, Foxtail, Giant)
